Measured values reported in US12685733B2, “Indole molecules and use thereof in the inhibition of DNA polymerases” (BioVentures, LLC, priority 2019, dated 2026).
Read-outs that look alike come from different tables or passages of the source.

Legend:
[1] = tested on: hpol κ-deficient HAP-1 cells; experiment: supF mutagenesis assay; details: 1 μM IAG-10, 24 h
Protocol: HAP-1 hpol κ-proficient and hpol κ-deficient cells were cultured in 10 cm dishes to ~80% confluency in Iscove's modified Dulbecco's medium (Invitrogen) containing 10% (v/v) FBS supplemented with Ix antibiotic antimycotic solution (Sigma). They were transfected with unmodified (control) and methylmethanesulfonate (MMS)-modified pSP189 plasmid harboring the supF gene either in the absence or presence of 1 μM IAG-10. For plasmid modification with MMS, the pSP189 plasmid was first incubated with 100 mM MMS in 10 mM HEPES buffer (pH 7.5) containing 50 mM KCl, 5 mM MgCl2, and 1 mM dithiothreitol at RT for 1 h. The MMS-modified plasmid was then purified by ethanol precipitation and used in subsequent transfections, similar to the unmodified plasmid. […] The recovered plasmids (75-100 ng) were then transformed into E. coli MBM7070 strain by electroporation, and the transformed bacterial cells were plated on LB-agar plates containing 100 μg/mL ampicillin, 1 mM isopropyl-I-thio-fi-Dgalactopyranoside (IPTG) and 100 μg/mL X-gaL The resulting blue (nonmutated) and white (mutated) colonies were counted. The mutation frequency was calculated as the ratio of mutant (white) colonies to total (blue+white) colonies. At least 10 000 colonies were counted for each condition, and the results reported represent the mean (±SD) of experiments performed in biological triplicate.

T98G spheroids = experiment: Spheroid growth rate assay; type: cell-based; details: 50 nM or 500 nM, with or without TMZ, 12 days
Protocol: Cell, spheroid and organoid culture. Grade IV glioma cells (T98G) were obtained from the American Type Culture Collection (ATCC). MCF7 cells were a kind gift from Dr. Timothy Chambers (UAMS). The POLKKO T98G cell lines were generated using CRISPR-Cas9 and validated by immunoblotting (data not shown). For normal culture, these cells were grown in minimum essential media (MEM) containing 10% fetal bovine serum (FBS), 1% (v/v) antibiotic/[…] and incubated at 37° C. in 5% CO2.
For spheroid culture, 24 h prior to plating cells, dishes were coated in 1× poly-HEMA (0.6 g poly-2-hydroxyethyl methacrylate into 50 mL 95% EtOH) under sterile conditions and allowed to dry overnight. Coated dishes were hydrated in 1×PBS for 20 min prior to plating. Spheroids were cultured in NeuroCult NS-A basal medium containing NeuroCult NS-A proliferation supplement, 20 ng/mL human recombinant epidermal growth factor (EGF), 10 ng/mL human recombinant basic fibroblast growth factor (bFGF), and 0.0002% heparin (referred to as NS-A complete medium). […]
Spheroid growth rate assay. […] Spheroids with a diameter of 50 µm or larger were counted as true spheroids and an average size was determined for each well. Changes in average size for each well over the growth time was recorded and used to generate the growth rate. […]

hpol κ = molecular target: T1, hpol κ (Homo sapiens, UniProt Q9UBT6); experiment: Fluorescence-based (TAMRA/BHQ strand displacement) DNA polymerase activity assay
T1 sequence (Q9UBT6 19-526): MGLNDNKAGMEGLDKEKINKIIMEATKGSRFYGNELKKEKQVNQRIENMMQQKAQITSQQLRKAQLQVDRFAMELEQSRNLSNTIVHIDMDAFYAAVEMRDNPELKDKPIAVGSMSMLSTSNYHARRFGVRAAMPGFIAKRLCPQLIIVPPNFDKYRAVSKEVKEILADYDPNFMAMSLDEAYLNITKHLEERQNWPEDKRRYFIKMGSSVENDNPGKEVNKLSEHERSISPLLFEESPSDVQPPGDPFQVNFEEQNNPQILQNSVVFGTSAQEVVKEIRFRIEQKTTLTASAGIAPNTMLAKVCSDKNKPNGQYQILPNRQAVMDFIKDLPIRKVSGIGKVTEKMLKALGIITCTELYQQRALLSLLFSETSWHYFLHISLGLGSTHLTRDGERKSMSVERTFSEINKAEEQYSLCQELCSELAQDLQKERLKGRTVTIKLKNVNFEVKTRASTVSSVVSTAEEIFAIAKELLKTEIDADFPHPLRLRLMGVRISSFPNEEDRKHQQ

hpol η = molecular target: T2, hpol η (Homo sapiens, UniProt Q9Y253); experiment: Gel-based primer extension assay; type: biochemical; details: 10 μM; 2 nM hpol η
T2 construct: hpol η (residues 1-437); made in house
T2 sequence (Q9Y253 1-437): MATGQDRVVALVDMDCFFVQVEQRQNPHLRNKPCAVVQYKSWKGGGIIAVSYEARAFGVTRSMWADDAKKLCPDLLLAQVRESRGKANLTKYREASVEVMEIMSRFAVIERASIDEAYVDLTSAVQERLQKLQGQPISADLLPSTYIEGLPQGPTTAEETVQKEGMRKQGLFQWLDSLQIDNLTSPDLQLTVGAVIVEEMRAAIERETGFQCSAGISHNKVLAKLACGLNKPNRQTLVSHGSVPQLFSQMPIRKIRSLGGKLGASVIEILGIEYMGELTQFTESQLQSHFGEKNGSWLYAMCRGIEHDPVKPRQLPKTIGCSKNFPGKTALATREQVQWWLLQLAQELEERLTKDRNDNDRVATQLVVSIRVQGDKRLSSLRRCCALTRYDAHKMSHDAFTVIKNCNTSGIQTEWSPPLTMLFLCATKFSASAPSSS

Cl.[H]/N=C(\N)NN=Cc1cn(C(=O)c2cccc3ccccc23)c2ccc(Cl)cc12 [IAG-10, (E)-2-((1-(1-naphthoyl)-5-chloro-1H-indol-3-y1)methylene)hydrazine-1-carboximidamide hydrochloride]
mutation frequency for control or MMS-damaged DNA [1]: did not alter the mutation frequency | glioma spheroid growth rate (T98G spheroids): inhibits glioma spheroid growth rate on its own and also enhances the effects of TMZ | polymerase activity relative to DMSO control (hpol κ; 10 μM, 25 nM hpol κ, comparison with A, B, X family pols): only hpol κ activity was inhibited | % Activity Mean (hpol κ activity) (hpol κ; IAG compounds, 40 μM, rate relative to DMSO control, three independent experiments): 0.0% | specificity for hpol κ over η (hpol κ; after altering the reaction conditions (lower enzyme and DNA)): ~ 30 fold | specificity for hpol κ over η (hpol κ; before altering the reaction conditions): ~ 2 fold | IC50 (hpol κ; read-out: IC50 against hpol κ, structure-activity study, 1 nM hpol κ, 50 nM DNA): 7.2 µM | IC50 (hpol κ; read-out: IC50 for inhibition of hpol κ, 0.5 nM DNA, 0.1 nM hpol κ, 95% confidence interval in parentheses): 0.72 µM | IC50 (hpol κ; read-out: IC50 for inhibition of hpol κ, 1 nM DNA, 95% confidence interval in parentheses): 1.1 µM | IC50 (hpol κ; read-out: IC50 for inhibition of hpol κ, 2.5 nM DNA, 95% confidence interval in parentheses): 1.4 µM | IC50 (hpol κ; read-out: IC50 for inhibition of hpol κ, 10 nM DNA, 95% confidence interval in parentheses): 8.9 µM | IC50 (hpol κ; read-out: IC50 for inhibition of hpol κ, 25 nM DNA, 95% confidence interval in parentheses): 8.9 µM | IC50 (hpol κ; read-out: IC50 for inhibition of hpol κ, 50 nM DNA, 95% confidence interval in parentheses): 7.2 µM | turnover number (kcat), hpol κ-catalyzed dTTP insertion (hpol κ; steady-state kinetics with varying inhibitor concentration): sharp decrease | polymerase activity relative to DMSO control (hpol η): only hpol κ was inhibited
